# In the CheMixHub viscosity set:
# ± gives the uncertainty stated by the source.
# Assay: xn = mol fraction of the nth substance listed
smiles,measurement,setting,value
O=[N+]([O-])[O-].O=[N+]([O-])[O-].O=[N+]([O-])[O-].[Nd+3] + O,viscosity,"293.15 K, 101.3 kPa, x1 = 0.009316",1.299 ± 0.0097 mPa·s
same,viscosity,"293.15 K, 101.3 kPa, x1 = 0.01807",1.721 ± 0.015 mPa·s
same,viscosity,"293.15 K, 101.3 kPa, x1 = 0.02726",2.369 ± 0.021 mPa·s
same,viscosity,"293.15 K, 101.3 kPa, x1 = 0.03634",3.383 ± 0.037 mPa·s
same,viscosity,"293.15 K, 101.3 kPa, x1 = 0.05266",6.774 ± 0.11 mPa·s
same,viscosity,"293.15 K, 101.3 kPa, x1 = 0.06916",14.9 ± 0.13 mPa·s
same,viscosity,"293.15 K, 101.3 kPa, x1 = 0.07185",17.16 ± 0.15 mPa·s
same,viscosity,"298.15 K, 101.3 kPa, x1 = 0.009316",1.159 ± 0.0085 mPa·s
same,viscosity,"298.15 K, 101.3 kPa, x1 = 0.01807",1.53 ± 0.011 mPa·s
same,viscosity,"298.15 K, 101.3 kPa, x1 = 0.02726",2.106 ± 0.016 mPa·s
same,viscosity,"298.15 K, 101.3 kPa, x1 = 0.03634",2.967 ± 0.023 mPa·s
same,viscosity,"298.15 K, 101.3 kPa, x1 = 0.05266",5.8 ± 0.05 mPa·s
same,viscosity,"298.15 K, 101.3 kPa, x1 = 0.06916",12.34 ± 0.11 mPa·s
same,viscosity,"298.15 K, 101.3 kPa, x1 = 0.07185",14.09 ± 0.12 mPa·s
same,viscosity,"308.15 K, 101.3 kPa, x1 = 0.009316",0.9433 ± 0.0074 mPa·s
same,viscosity,"308.15 K, 101.3 kPa, x1 = 0.01807",1.242 ± 0.0091 mPa·s
same,viscosity,"308.15 K, 101.3 kPa, x1 = 0.02726",1.696 ± 0.013 mPa·s
same,viscosity,"308.15 K, 101.3 kPa, x1 = 0.03634",2.353 ± 0.017 mPa·s
same,viscosity,"308.15 K, 101.3 kPa, x1 = 0.05266",4.38 ± 0.03 mPa·s
same,viscosity,"308.15 K, 101.3 kPa, x1 = 0.06916",8.715 ± 0.088 mPa·s
same,viscosity,"308.15 K, 101.3 kPa, x1 = 0.07185",9.848 ± 0.1 mPa·s
O=C1CCCC1 + CCCO,viscosity,"303.15 K, 101 kPa, x1 = 0.1001",1.333 ± 0.01 mPa·s
same,viscosity,"303.15 K, 101 kPa, x1 = 0.2566",1.091 ± 0.009 mPa·s
same,viscosity,"303.15 K, 101 kPa, x1 = 0.4203",0.974 ± 0.008 mPa·s
same,viscosity,"303.15 K, 101 kPa, x1 = 0.5821",0.922 ± 0.008 mPa·s
same,viscosity,"303.15 K, 101 kPa, x1 = 0.7382",0.915 ± 0.008 mPa·s
same,viscosity,"303.15 K, 101 kPa, x1 = 0.8967",0.935 ± 0.008 mPa·s
NC1CCCCC1 + COCCO,viscosity,"308.15 K, 101 kPa, x2 = 0.1393",1.314 ± 0.017 mPa·s
same,viscosity,"308.15 K, 101 kPa, x2 = 0.267",1.303 ± 0.017 mPa·s
same,viscosity,"308.15 K, 101 kPa, x2 = 0.3844",1.298 ± 0.016 mPa·s
same,viscosity,"308.15 K, 101 kPa, x2 = 0.4927",1.29 ± 0.016 mPa·s
same,viscosity,"308.15 K, 101 kPa, x2 = 0.593",1.294 ± 0.016 mPa·s
same,viscosity,"308.15 K, 101 kPa, x2 = 0.6861",1.283 ± 0.016 mPa·s
same,viscosity,"308.15 K, 101 kPa, x2 = 0.7727",1.263 ± 0.016 mPa·s
same,viscosity,"308.15 K, 101 kPa, x2 = 0.8536",1.254 ± 0.016 mPa·s
same,viscosity,"308.15 K, 101 kPa, x2 = 0.9291",1.242 ± 0.016 mPa·s
NC1CCCCC1 + C1COCO1,viscosity,"298.15 K, 101 kPa, x2 = 0.1295",1.517 ± 0.012 mPa·s
same,viscosity,"298.15 K, 101 kPa, x2 = 0.2508",1.331 ± 0.01 mPa·s
same,viscosity,"298.15 K, 101 kPa, x2 = 0.3646",1.174 ± 0.0093 mPa·s
same,viscosity,"298.15 K, 101 kPa, x2 = 0.4716",1.044 ± 0.0084 mPa·s
same,viscosity,"298.15 K, 101 kPa, x2 = 0.5724",0.9345 ± 0.0076 mPa·s
same,viscosity,"298.15 K, 101 kPa, x2 = 0.6676",0.8431 ± 0.007 mPa·s
same,viscosity,"298.15 K, 101 kPa, x2 = 0.7575",0.7633 ± 0.0064 mPa·s
same,viscosity,"298.15 K, 101 kPa, x2 = 0.8427",0.6955 ± 0.0059 mPa·s
same,viscosity,"298.15 K, 101 kPa, x2 = 0.9234",0.6344 ± 0.0055 mPa·s
O=C(CO)[C@@H](O)[C@H](O)[C@H](O)CO + C[N+](C)(C)CCO.[Cl-],viscosity,"313.2 K, 100 kPa, x2 = 0.6",1645 ± 100 mPa·s
same,viscosity,"318.2 K, 100 kPa, x2 = 0.6",1057 ± 61 mPa·s
ClC=C(Cl)Cl + O=C1CCCCC1,viscosity,"298.15 K, 101.33 kPa, x1 = 0.1122",1.589 ± 0.02 mPa·s
same,viscosity,"298.15 K, 101.33 kPa, x1 = 0.2059",1.365 ± 0.018 mPa·s
same,viscosity,"298.15 K, 101.33 kPa, x1 = 0.3057",1.215 ± 0.016 mPa·s
same,viscosity,"298.15 K, 101.33 kPa, x1 = 0.4263",1.069 ± 0.014 mPa·s
same,viscosity,"298.15 K, 101.33 kPa, x1 = 0.4987",0.988 ± 0.013 mPa·s
same,viscosity,"298.15 K, 101.33 kPa, x1 = 0.6177",0.883 ± 0.011 mPa·s
same,viscosity,"298.15 K, 101.33 kPa, x1 = 0.7064",0.803 ± 0.01 mPa·s
same,viscosity,"298.15 K, 101.33 kPa, x1 = 0.7889",0.739 ± 0.009 mPa·s
same,viscosity,"298.15 K, 101.33 kPa, x1 = 0.9152",0.666 ± 0.009 mPa·s
same,viscosity,"308.15 K, 101.33 kPa, x1 = 0.1122",1.339 ± 0.017 mPa·s
same,viscosity,"308.15 K, 101.33 kPa, x1 = 0.2059",1.174 ± 0.015 mPa·s
same,viscosity,"308.15 K, 101.33 kPa, x1 = 0.3057",1.062 ± 0.014 mPa·s
same,viscosity,"308.15 K, 101.33 kPa, x1 = 0.4263",0.944 ± 0.012 mPa·s
same,viscosity,"308.15 K, 101.33 kPa, x1 = 0.4957",0.878 ± 0.011 mPa·s
same,viscosity,"308.15 K, 101.33 kPa, x1 = 0.6177",0.789 ± 0.01 mPa·s
same,viscosity,"308.15 K, 101.33 kPa, x1 = 0.7064",0.723 ± 0.009 mPa·s
same,viscosity,"308.15 K, 101.33 kPa, x1 = 0.7889",0.68 ± 0.009 mPa·s
same,viscosity,"308.15 K, 101.33 kPa, x1 = 0.9152",0.618 ± 0.008 mPa·s
same,viscosity,"318.15 K, 101.33 kPa, x1 = 0.1122",1.158 ± 0.015 mPa·s
same,viscosity,"318.15 K, 101.33 kPa, x1 = 0.2059",1.034 ± 0.013 mPa·s
same,viscosity,"318.15 K, 101.33 kPa, x1 = 0.3057",0.933 ± 0.012 mPa·s
same,viscosity,"318.15 K, 101.33 kPa, x1 = 0.4263",0.835 ± 0.011 mPa·s
same,viscosity,"318.15 K, 101.33 kPa, x1 = 0.4957",0.791 ± 0.01 mPa·s
same,viscosity,"318.15 K, 101.33 kPa, x1 = 0.6177",0.719 ± 0.009 mPa·s
same,viscosity,"318.15 K, 101.33 kPa, x1 = 0.7064",0.672 ± 0.009 mPa·s
same,viscosity,"318.15 K, 101.33 kPa, x1 = 0.7889",0.633 ± 0.008 mPa·s
same,viscosity,"318.15 K, 101.33 kPa, x1 = 0.9152",0.582 ± 0.007 mPa·s
